Key:
[1] = biological target: T1, Prostaglandin G/H synthase 1 (Homo sapiens, UniProt P23219); assay type: functional
Thromboxane A2 receptor [2] = biological target: T2, Thromboxane A2 receptor (Homo sapiens, UniProt P21731); assay type: functional, cell-based
T2 sequence (P21731 whole entry): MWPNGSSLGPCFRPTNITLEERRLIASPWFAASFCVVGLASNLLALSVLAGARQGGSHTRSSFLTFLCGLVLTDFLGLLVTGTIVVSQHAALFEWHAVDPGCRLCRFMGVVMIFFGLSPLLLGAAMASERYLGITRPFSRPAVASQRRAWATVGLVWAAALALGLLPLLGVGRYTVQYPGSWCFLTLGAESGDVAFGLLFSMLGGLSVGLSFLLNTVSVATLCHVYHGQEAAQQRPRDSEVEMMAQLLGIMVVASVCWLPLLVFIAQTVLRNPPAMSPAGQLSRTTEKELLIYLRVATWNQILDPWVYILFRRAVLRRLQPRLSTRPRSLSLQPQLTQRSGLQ

[3] = biological target: T3, Alpha-1A adrenergic receptor (Homo sapiens, UniProt P35348); assay type: functional, cell-based
T3 sequence (P35348 whole entry): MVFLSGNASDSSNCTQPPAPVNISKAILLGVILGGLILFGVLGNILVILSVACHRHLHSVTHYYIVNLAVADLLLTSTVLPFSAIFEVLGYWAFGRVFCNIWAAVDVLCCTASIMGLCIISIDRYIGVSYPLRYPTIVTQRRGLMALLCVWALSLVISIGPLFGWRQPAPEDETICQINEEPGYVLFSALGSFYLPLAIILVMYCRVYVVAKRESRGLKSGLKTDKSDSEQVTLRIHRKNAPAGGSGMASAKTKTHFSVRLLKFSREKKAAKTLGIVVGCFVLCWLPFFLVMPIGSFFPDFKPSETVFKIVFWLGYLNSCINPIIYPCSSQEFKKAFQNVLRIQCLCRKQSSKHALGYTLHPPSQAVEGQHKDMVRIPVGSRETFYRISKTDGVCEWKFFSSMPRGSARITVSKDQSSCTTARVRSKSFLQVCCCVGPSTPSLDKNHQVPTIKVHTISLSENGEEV

[4] = biological target: Sodium-dependent dopamine transporter (Homo sapiens, UniProt Q01959)
[5] = biological target: T1, Prostaglandin G/H synthase 1; assay type: functional; remark: listed apart in the source
Adenosine receptor A3 = biological target: T4, Adenosine receptor A3 (Homo sapiens, UniProt P0DMS8)
T4 sequence (P0DMS8 whole entry): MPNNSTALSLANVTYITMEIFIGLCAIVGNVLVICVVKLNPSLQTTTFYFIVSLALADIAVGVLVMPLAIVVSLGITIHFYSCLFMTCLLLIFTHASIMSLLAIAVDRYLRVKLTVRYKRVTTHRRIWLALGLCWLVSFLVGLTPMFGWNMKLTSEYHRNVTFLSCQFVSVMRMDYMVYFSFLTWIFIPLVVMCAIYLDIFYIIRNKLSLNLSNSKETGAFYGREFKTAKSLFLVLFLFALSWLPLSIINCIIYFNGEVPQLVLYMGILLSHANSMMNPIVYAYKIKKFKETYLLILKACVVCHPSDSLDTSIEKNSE

D(3) dopamine receptor = D(3) dopamine receptor (Homo sapiens, UniProt P35462)
[6] = biological target: T5, Amine oxidase [flavin-containing] A (Homo sapiens, UniProt P21397); assay type: functional
T5 sequence (P21397 whole entry): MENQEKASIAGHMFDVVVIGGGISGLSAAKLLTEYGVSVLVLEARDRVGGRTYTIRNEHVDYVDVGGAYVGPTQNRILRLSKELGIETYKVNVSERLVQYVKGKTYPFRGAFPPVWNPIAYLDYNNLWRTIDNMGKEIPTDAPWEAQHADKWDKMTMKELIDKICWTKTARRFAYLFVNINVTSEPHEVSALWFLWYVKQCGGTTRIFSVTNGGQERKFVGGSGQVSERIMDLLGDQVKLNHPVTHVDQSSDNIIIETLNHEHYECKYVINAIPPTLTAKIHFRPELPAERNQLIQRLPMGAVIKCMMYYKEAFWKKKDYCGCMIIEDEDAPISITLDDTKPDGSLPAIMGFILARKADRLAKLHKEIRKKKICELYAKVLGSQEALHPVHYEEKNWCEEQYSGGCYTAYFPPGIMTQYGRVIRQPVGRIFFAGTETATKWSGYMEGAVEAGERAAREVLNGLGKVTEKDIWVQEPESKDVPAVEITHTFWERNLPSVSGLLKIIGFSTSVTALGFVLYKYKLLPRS

Mu-type opioid receptor = Mu-type opioid receptor (Homo sapiens, UniProt P35372)
[7] = biological target: 5-hydroxytryptamine receptor 2B (Homo sapiens, UniProt P41595); assay type: functional, cell-based
Prothrombin = Prothrombin (Homo sapiens, UniProt P00734); assay type: functional
Acetylcholinesterase = Acetylcholinesterase (Homo sapiens, UniProt P22303); assay type: functional
[8] = biological target: Voltage-gated inwardly rectifying potassium channel KCNH2 (Homo sapiens, UniProt Q12809); assay type: functional; settings: read-out: AC50
Thromboxane A2 receptor [9] = biological target: T2, Thromboxane A2 receptor; assay type: functional, cell-based; remark: listed apart in the source
Estrogen receptor = biological target: T6, Estrogen receptor (Homo sapiens, UniProt P03372)
T6 sequence (P03372 whole entry): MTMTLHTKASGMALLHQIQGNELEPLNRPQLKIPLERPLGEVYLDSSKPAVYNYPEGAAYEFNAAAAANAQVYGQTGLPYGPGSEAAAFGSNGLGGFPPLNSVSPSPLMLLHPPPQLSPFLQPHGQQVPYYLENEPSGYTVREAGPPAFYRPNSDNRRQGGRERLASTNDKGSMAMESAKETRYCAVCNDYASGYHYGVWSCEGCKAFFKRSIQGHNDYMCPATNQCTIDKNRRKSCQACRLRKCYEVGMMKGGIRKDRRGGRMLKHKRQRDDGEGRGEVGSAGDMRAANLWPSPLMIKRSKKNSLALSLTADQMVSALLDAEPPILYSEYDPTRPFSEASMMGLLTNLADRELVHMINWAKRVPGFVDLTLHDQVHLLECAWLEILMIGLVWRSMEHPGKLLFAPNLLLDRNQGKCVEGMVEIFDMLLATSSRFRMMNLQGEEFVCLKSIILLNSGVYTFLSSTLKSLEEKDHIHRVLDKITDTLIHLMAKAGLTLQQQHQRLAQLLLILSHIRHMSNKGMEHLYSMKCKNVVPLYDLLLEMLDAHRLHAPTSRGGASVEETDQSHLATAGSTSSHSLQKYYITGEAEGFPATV

[10] = biological target: cGMP-inhibited 3',5'-cyclic phosphodiesterase 3A (Homo sapiens, UniProt Q14432); assay type: functional
Note: assay procedure not described here.

cGMP-inhibited 3',5'-cyclic phosphodiesterase 3A, sequence (Q14432 whole entry): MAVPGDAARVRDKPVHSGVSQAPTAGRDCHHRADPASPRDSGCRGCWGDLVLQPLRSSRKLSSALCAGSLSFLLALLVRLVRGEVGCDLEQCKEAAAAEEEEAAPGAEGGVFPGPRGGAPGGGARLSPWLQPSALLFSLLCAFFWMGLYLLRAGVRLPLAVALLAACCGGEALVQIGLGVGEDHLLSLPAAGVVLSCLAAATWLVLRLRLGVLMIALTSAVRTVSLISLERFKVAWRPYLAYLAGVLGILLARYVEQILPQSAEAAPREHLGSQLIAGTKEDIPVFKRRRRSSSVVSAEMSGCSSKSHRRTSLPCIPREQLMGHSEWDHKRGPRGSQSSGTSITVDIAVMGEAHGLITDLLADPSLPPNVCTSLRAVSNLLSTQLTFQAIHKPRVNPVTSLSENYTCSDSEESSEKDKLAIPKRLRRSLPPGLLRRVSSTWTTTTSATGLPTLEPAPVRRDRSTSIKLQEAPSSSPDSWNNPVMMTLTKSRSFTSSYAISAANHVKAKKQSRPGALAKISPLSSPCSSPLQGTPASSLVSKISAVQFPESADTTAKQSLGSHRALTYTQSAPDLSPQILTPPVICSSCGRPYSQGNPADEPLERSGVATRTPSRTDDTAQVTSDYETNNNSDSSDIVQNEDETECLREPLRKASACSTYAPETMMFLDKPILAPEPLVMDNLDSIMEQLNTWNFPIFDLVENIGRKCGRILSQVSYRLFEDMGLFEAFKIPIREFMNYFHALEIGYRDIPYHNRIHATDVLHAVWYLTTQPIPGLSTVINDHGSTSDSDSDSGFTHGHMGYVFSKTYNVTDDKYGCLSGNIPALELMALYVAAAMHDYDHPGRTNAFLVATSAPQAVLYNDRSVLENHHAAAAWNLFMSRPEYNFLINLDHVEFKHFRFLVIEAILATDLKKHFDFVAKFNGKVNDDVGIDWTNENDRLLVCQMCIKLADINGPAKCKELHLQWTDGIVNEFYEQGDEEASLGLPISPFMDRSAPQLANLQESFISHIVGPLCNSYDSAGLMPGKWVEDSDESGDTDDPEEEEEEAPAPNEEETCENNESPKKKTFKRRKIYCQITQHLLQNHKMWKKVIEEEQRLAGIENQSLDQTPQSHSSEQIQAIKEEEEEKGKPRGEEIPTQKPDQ
T1 sequence (P23219 whole entry): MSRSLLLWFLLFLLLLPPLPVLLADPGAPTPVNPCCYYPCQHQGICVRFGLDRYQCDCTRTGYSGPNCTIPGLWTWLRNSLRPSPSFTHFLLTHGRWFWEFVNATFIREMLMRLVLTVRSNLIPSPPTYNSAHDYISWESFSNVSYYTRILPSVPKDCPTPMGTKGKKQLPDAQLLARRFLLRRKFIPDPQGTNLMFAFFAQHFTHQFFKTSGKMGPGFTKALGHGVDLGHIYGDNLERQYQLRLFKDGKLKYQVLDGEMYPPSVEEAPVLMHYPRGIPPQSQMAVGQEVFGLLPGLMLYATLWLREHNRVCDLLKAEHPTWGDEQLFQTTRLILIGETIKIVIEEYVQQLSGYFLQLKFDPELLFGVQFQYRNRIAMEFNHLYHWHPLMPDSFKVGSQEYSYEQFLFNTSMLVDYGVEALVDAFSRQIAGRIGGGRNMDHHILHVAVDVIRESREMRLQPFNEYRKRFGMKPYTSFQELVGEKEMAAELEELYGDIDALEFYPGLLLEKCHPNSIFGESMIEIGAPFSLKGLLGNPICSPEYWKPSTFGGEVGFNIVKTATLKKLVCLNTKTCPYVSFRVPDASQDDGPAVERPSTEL
Voltage-gated inwardly rectifying potassium channel KCNH2, sequence (Q12809 whole entry): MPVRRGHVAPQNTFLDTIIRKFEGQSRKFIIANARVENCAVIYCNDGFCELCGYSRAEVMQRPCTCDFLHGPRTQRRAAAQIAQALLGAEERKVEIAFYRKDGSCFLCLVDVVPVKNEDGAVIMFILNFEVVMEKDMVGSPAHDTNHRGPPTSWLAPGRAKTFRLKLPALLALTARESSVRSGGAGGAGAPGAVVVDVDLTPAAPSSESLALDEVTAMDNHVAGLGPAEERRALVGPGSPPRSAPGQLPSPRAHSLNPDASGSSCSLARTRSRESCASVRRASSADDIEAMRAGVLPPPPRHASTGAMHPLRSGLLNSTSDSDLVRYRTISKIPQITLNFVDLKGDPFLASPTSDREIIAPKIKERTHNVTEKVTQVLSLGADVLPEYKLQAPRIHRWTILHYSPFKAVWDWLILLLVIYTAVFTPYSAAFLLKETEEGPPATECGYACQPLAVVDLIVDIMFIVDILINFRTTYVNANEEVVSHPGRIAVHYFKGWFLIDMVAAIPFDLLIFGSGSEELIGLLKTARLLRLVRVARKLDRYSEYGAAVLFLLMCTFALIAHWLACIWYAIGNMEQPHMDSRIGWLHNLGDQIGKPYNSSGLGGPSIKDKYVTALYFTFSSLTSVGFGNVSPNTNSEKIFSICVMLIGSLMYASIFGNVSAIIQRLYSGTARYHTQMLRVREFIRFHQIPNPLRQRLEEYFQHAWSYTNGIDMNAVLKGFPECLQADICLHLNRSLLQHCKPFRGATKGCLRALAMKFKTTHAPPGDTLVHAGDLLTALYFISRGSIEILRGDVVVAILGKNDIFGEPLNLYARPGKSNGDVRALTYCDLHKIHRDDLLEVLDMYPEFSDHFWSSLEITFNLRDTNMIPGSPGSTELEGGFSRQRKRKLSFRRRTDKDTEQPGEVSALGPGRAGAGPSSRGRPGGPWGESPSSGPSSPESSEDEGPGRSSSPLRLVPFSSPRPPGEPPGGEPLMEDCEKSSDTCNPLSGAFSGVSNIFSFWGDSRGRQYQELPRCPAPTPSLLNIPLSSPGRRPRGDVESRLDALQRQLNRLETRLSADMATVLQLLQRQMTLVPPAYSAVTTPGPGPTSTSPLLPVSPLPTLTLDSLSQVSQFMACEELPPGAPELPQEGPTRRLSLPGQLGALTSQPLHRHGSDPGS
Sodium-dependent dopamine transporter, sequence (Q01959 whole entry): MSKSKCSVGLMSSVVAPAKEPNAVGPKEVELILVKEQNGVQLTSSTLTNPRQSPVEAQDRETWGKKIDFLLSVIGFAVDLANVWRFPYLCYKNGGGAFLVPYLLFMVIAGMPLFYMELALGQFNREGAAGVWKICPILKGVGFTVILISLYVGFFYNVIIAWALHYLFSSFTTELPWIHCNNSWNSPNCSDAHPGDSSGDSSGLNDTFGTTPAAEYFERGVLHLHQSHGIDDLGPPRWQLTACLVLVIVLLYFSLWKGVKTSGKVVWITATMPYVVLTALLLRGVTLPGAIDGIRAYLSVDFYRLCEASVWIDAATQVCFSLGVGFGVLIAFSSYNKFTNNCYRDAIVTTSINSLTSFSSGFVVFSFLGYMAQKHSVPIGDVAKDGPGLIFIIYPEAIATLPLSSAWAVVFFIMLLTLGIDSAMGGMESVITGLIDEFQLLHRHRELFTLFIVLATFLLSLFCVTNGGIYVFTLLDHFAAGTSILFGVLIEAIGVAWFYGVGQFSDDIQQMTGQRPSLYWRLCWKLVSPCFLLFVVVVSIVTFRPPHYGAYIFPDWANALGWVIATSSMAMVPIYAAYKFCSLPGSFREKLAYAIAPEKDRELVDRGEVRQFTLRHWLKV
Acetylcholinesterase, sequence (P22303 whole entry): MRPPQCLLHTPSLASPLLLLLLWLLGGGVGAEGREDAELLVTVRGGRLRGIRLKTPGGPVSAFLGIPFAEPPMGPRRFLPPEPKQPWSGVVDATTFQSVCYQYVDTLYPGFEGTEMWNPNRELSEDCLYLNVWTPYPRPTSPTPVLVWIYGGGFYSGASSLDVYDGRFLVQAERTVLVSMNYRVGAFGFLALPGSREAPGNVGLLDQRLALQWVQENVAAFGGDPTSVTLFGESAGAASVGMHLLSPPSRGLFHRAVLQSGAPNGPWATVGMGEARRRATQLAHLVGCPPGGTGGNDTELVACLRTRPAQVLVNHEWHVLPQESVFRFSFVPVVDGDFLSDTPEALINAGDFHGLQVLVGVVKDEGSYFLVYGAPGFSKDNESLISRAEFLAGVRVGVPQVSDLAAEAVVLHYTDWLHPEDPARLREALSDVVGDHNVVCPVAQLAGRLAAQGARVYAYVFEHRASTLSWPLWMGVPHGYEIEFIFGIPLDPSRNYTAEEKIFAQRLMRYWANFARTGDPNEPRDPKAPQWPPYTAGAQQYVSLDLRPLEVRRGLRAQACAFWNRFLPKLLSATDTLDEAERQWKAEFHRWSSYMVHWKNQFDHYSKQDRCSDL
Mu-type opioid receptor, sequence (P35372 whole entry): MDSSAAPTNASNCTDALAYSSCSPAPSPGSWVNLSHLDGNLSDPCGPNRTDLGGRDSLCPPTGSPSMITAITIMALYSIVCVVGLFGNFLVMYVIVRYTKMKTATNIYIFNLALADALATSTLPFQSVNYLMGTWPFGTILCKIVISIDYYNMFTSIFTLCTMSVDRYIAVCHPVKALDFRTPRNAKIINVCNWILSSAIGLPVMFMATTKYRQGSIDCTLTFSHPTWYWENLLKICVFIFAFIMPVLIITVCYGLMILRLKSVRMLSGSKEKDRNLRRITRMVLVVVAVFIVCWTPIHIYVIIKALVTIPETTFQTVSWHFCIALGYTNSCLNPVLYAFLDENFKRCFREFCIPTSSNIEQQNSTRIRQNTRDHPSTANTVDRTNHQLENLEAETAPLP
D(3) dopamine receptor, sequence (P35462 whole entry): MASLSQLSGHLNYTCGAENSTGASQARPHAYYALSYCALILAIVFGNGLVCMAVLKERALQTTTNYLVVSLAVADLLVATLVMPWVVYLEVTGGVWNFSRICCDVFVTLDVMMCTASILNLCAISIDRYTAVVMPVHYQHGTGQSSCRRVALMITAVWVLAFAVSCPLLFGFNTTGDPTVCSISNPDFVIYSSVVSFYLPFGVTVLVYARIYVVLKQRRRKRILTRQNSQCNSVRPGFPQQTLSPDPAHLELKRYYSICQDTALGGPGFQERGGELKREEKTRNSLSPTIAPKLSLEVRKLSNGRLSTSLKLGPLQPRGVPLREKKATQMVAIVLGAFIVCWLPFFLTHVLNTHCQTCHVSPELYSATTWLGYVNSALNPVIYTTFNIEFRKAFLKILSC

Row | Compound | AC50 [1] [µM] | AC50 (Thromboxane A2 receptor [2]) [µM] | AC50 [3] [µM] | AC50 [4] [µM] | AC50 [5] [µM] | AC50 (Adenosine receptor A3) [µM] | AC50 (D(3) dopamine receptor) [µM] | AC50 [6] [µM] | AC50 (Mu-type opioid receptor) [µM] | AC50 [7] [µM] | AC50 (Prothrombin) [µM] | AC50 (Acetylcholinesterase) [µM] | AC50 [8] [µM] | AC50 (Thromboxane A2 receptor [9]) [µM] | AC50 (Estrogen receptor) [µM] | AC50 [10] [µM]
1 | CCCC[N+]1(C)[C@@H]2C[C@@H](OC(=O)[C@H](CO)c3ccccc3)C[C@H]1[C@@H]1O[C@@H]12 (stereo partly specified) [BUTYLSCOPOLAMINE] | > 30 | > 30 | > 30 | > 30 | > 30 | > 30 | > 30 | > 30 | > 30 | > 30 | > 30 | > 30 | 2.8 | > 30 | > 30 | > 30
2 | CN1CCN(C(c2ccccc2)c2ccccc2)CC1 [CYCLIZINE] | > 30 | > 30 | > 30 | 1.98 | > 30 | 9.64 | 2.21 | > 30 | 24.9 | > 30 | > 30 | > 30 | 20 | > 30 | > 30 | > 30
3 | Nc1nc(-n2cc(C(=O)O)c(=O)c3cc(F)c(N4CC(O)C4)c(Cl)c32)c(F)cc1F [DELAFLOXACIN] | > 30 | > 30 | > 30 | > 30 | > 30 | > 3 | > 30 | > 30 | > 30 | > 30 | > 30 | > 30 | > 30 | > 30 | > 30 | > 30
4 | COc1ccc(-c2cc(=O)c3c(O)cc(O[C@@H]4O[C@H](CO[C@@H]5O[C@@H](C)[C@H](O)[C@@H](O)[C@H]5O)[C@@H](O)[C@H](O)[C@H]4O)cc3o2)cc1O [DIOSMIN] | > 30 | > 30 | > 30 | > 30 | > 30 | > 30 | > 30 | > 30 | > 30 | > 30 | > 30 | > 30 | > 30 | > 30 | > 30 | > 30
5 | O=C(Nc1ccccc1)OCC(CN1CCCCC1)OC(=O)Nc1ccccc1 (stereo unspecified) [DIPERODON] | > 30 | > 30 | > 30 | > 30 | > 30 | > 30 | 23.5 | > 30 | 11.2 | > 30 | > 30 | > 30 | 5.4 | > 30 | > 30 | > 30
6 | CCOc1ccc(/C=C2\NCCc3cc(OCC)c(OCC)cc32)cc1OCC [DROTAVERINE] | > 10 | > 30 | > 10 | > 30 | 9.33 | 26.4 | > 30 | > 30 | > 10 | > 30 | > 30 | 26.1 | 2.9 | > 30 | > 30 | > 30
7 | CC1=NN(c2ccccc2)C(=O)C1 [EDARAVONE] | 12.5 | > 30 | > 30 | > 30 | > 30 | > 30 | 10.9 | > 30 | > 30 | > 30 | > 30 | > 30 | > 30 | > 30 | > 30 | > 30
8 | CCOC(=O)C(c1c(O)c2ccccc2oc1=O)c1c(O)c2ccccc2oc1=O [ETHYL BISCOUMACETATE] | > 30 | > 30 | > 30 | > 30 | > 30 | 17.3 | > 30 | > 30 | > 30 | > 30 | > 30 | > 30 | > 30 | > 30 | > 30 | > 30
9 | Cc1nc(-c2ccc(OCC(C)C)c(C#N)c2)sc1C(=O)O [FEBUXOSTAT] | > 30 | > 30 | > 30 | > 30 | > 30 | > 30 | > 30 | > 30 | > 30 | > 30 | > 30 | > 30 | > 30 | > 30 | > 30 | > 30
10 | O=C1NCC2(CCN(CCc3ccccc3)CC2)O1 [FENSPIRIDE] | > 30 | > 30 | > 30 | > 30 | > 30 | > 30 | > 30 | > 30 | > 30 | > 30 | > 30 | > 30 | > 30 | > 30 | > 30 | > 30
11 | C[C@@H]1C[C@H]2[C@@H]3C[C@H](F)C4=CC(=O)C=C[C@]4(C)[C@@]3(F)[C@@H](O)C[C@]2(C)[C@@]1(O)C(=O)COC(=O)C(C)(C)C [FLUMETHASONE PIVALATE] | > 30 | > 30 | > 30 | > 30 | > 30 | > 30 | > 30 | > 30 | > 30 | > 30 | > 30 | > 30 | > 30 | > 30 | > 30 | > 30
